Test results taken from patent publication US20110081293A1, “METHODS AND COMPOSITIONS RELATED TO CLOT-BINDING LIPID COMPOUNDS” (SANFORD-BURNHAM MEDICAL RESEARCH INSTITUTE, priority 2009, published 2011).
No end group written: not given here. fluorescent dye = not defined here

What was measured:
[1] = test system: MDA-MB-435 human breast cancer xenografts; experiment: Tumor homing of intravenously injected fluorescent CREKA peptide; format: in vivo, mice
Procedure: (§1) Phage screening, tumors and peptides. In vivo screening of a peptide library with the general structure of CX7C (SEQ ID NO: 4), where C is cysteine and X is any amino acid, was carried out as described (Oh 2004) using 65- to 75-day-old transgenic MMTV PyMT mice (Hutchinson 2000). These mice express the polyoma virus middle T antigen (MT) under the transcriptional control of the mouse mammary tumor virus (MMTV), leading to the induction of multi-focal mammary tumors in 100% of carriers. MDA-MB-435 tumors in nude mice and peptide synthesis have been described (Laakkonen 2002; Laakkonen 2004). B16F1 murine melanoma tumors were grown in fibrinogen null mice (Suh 1995) and their normal littermates and used when they reached 0.5-1 cm in size (Pilch 2006).

PyMT tumors = experiment: as above; format: in vivo, mice; conditions: minutes to hours after the injection
Procedure: as §1

B16F1 melanomas = experiment: CREKA peptide homing in fibrinogen null mice and normal littermates; format: in vivo
Procedure: as §1

MDA-MB-435 tumor = experiment: Whole animal imaging of Alexa Fluor 647-labeled CREKA; format: in vivo, mouse; conditions: peptide labeled with Alexa 647
Procedure: (A). Balb/c nude mice bearing MDA-MB-435 human breast cancer xenograft tumors or transgenic MMTV PyMT mice with breast tumors were intravenously injected with 0.1 mg of fluorescein-CREKA. The animals were sacrificed by perfusion 24 hours post-injection and tissue sections were examined by fluorescent microscopy. Right panel, control organs of MDA-MB 435 tumor mice. Magnification 200×. (B). Whole animal imaging of MDA-MB-435 tumor mouse injected 6 hours earlier with 30 μg of Alexa Fluor 647-labeled CREKA. Maestro imaging system (Cambridge Research Inc., Woburn, Mass.) was used to acquire and process the image. The arrow points to the tumor and the arrowhead to the urinary bladder.

cys-arg-glu-lys-ala ({fluorescent dye}-CREKA; reading uncertain; also: dye identity not given here) [CREKA peptide]
detection of intravenously injected peptide in tumors ([1]; MDA-MB-435 xenografts, minutes to hours after the injection): readily detectable
detection of peptide in normal tissues ([1]; normal tissues): essentially undetectable
detection of intravenously injected peptide in tumors (PyMT tumors): readily detectable
accumulation in B16F1 melanomas (B16F1 melanomas; fibrinogen null mice): failed to accumulate
accumulation in B16F1 tumors (B16F1 melanomas; normal littermates of the null mice): formed a brightly fluorescent meshwork
whole body imaging, peptide accumulation (MDA-MB-435 tumor): peptide accumulation in the breast cancer xenografts, and in the bladder
